Laboratory results from US20020107245A1, “Method for treating fibrotic diseases or other indications IVC” (priority 2000, published 2002).
Where a name gives a salt, the structure may show the parent alone.

Experiments:
Rats = test: Rat left anterior descending coronary artery ligation, histological examination of hearts; assay type: in vivo; settings: 10 mg/kg daily intraperitoneal for 30 days before ligation and 14 days after
Procedure: Rats received a daily intraperitoneal dose of 10 mg/kg 3-[2-phenyl-2-oxoethyl]-4,5-dimethyl-thiazolium salt (compound A) (n=14) or placebo (n=15) for 30 days. The animals then underwent a thoracotomy and the left anterior descending coronary artery ligated. The chest was then closed and the animals allowed to recover for 14 days while continuing to be treated with compound A or placebo. The animals were then sacrificed and the hearts removed for histological examination. The weight of the infarcted tissue was 0.16±0.04 g for the placebo treated animals compared to 0.11±0.05 g for the compound A treated animals (p=0.04).

[1] = test system: elderly patients with pulse pressures greater than 60 mm Hg; test: Phase Ia clinical trial; assay type: in vivo, human
Text: When the heart pumps blood into the vascular system, the ability of the arteries to expand helps to push blood through the body. When arteries become stiff, as they do in the natural process of aging, the ability of the arteries to expand is diminished and also has consequences for the heart. The heart has to work harder to pump the blood into the stiff arteries, and eventually hypertrophies (enlarges in size) to accomplish this. A hypertrophied heart is an inefficient pump, and is one of the disorders that leads to congestive heart failure. […] The potential clinical benefit of this is to lessen the effort that the heart must expend to push blood throughout the body. The effect is also believed to contribute to preventing hypertrophy and subsequent inefficiency of the heart, which inefficiency would contribute to congestive heart failure.
Atherosclerosis is a disease that involves deposition of blood lipids in plaque in the arteries throughout the body. In coronary arteries, accumulation of plaque progressively leads to reduced coronary flow, with occlusion of the arteries causing focal death of cardiac tissue (myocardial infarction, heart attack). If the amount of tissue that dies is large enough, death ensures. […]

dog model for diabetes = test: Dog model for diabetes, indicators of ventricular elasticity; assay type: in vivo
Text: (§1) Cardiovascular risk correlates more closely with the systolic and the pulse pressure than with the diastolic pressure. In diabetic patients, the cardiovascular risk profile of diabetic patients is strongly correlated to duration of diabetes, glycemic control and blood pressure. Structural matrix proteins contribute to the function of vessels and the heart, and changes in the physical behavior of cardiovascular walls are believed to be important determinants of circulatory function. In elderly individuals, the loss of compliance in the aorta leads to isolated systolic hypertension, which in turn expands the arterial wall and thereby diminishes the dynamic range of elasticity. […] Treatment with 3-[2-phenyl-2-oxoethyl]-4,5-dimethyl-thiazolium salt lead to a reduction in the mass of collagen in cardiovascular tissues.

[2] = test system: rodents, canines and primates; test: In vivo studies of vascular stiffening and collagen mass in cardiovascular tissues
Text: as §1

TGFbeta = test: In situ hybridization studies
Text: as §1

Type IV collagen = test: In situ hybridization studies
Text: as §1

Cc1sc[n+](CC(=O)c2ccccc2)c1C [compound A, 3-[2-phenyl-2-oxoethyl]-4,5-dimethyl-thiazolium salt]
thickness of the ventricular wall in the infarcted zone (Rats): 2.56±0.22 mm
weight of the infarcted tissue (Rats): 0.11 ± 0.05 g
stiffness of arteries, as measured by the ratio of stroke volume (ml) to pulse pressure (mm Hg) ([1]; Phase Ia clinical trial): showed an ability to reverse the stiffness of arteries
pulse pressure ([1]; Phase Ia trial, elderly patients with pulse pressures greater than 60 mm Hg): reduced
end diastolic pressure (dog model for diabetes): returned to a value at about the mid-point between the disease impaired value and the value for control dogs
end diastolic volume (dog model for diabetes): returned to a value at about the mid-point between the disease impaired value and the value for control dogs
mass of collagen in cardiovascular tissues ([2]; in vivo): reduction
vascular stiffening ([2]; in vivo studies in rodents, canines and primates): substantially ameliorating vascular stiffening
expression of TGFbeta (TGFbeta): reduces
expression of Type IV collagen (Type IV collagen): reduces
